Test [1] relates to rat primary cardiomyocytes. The test can be described thus: MTT viability of rat primary cardiomyocytes after cold ischemia-reperfusion. Type of test: cell-based. The method, then:
(§1) MTT, or […] (Sigma), is a molecule that bonds to mitochondrial dehydrogenases (DH) in the presence of oxidized nicotimamide adenine dinucleotide and nicotimamide adenine dinucleotide phosphate (NAD+ and NADP+) coenzymes to form insoluble formazan crystals of violet color. The resulting violet color is evidence of mitochrondrial function and thus of cell viability. The crystals were dissolved in a permeabilization solution (dimethyl sulfoxide or DMSO, Sigma). This solubilization of formazan also gives rise to cell lysis. The plates were read by spectrophotometry (Multiskan Ex, Thermo, Electron Corporation®) at 550 nanometers (nm).
(§2) The purpose of this protocol was to determine the potentially protective effect of cyclosporin and/or taxol on cardiomyocytes placed in a cold ischemia situation at 4° C. for 24 hours (h), followed by reperfusion for 24 h, at the end of which the viability test (the MTT test) was performed. A “sham” group was not subjected to the ischemia—reperfusion sequence. At each of the doses tested, four different experiments were performed, and during each experiment, eight different cell wells were tested simultaneously.
(§3) Statistical analysis consisted in comparing means (Student's test between the group under study and the control group).

Another test has as its system H9c2 cardiomyocytes. The test can be described thus: MTT viability of H9c2 cardiomyocytes after cold ischemia-reperfusion. Type of test: cell-based, rat. On the procedure:
This was a conventional model for culturing rat cardiomyocytes. The H9c2 cardiac cells (ATTC®) came from rat heart ventricles transfected with a pSV3 plasmid containing the SV40 gene. The cells were cultivated in high glucose Dulbecco's modified Eagle's medium (DMEM) (PAA®), with an additional 10% of Mycoplex FBS (PAA®) and 1% penicillin-streptomycin. The medium was changed every two days and re-seeding was performed at 70%-80% confluence.
as §1, §2, §3
The viability of primary cardiomyocytes was evaluated after 24 h of cold ischemia and 24 h of reperfusion.
As before, the viability of H9c2 cardiomyocytes was evaluated after 24 h cold ischemia and 24 h reperfusion.

Test [2] deals with isolated whole rat heart. The test can be described thus: Functional recovery (LVDevP×HR) of perfused isolated rat heart (Langendorff mode) after cold ischemia-reperfusion. As to conditions: 1 μM in Celsior solution; 8 h cold ischemia at 4° C. + 1 h reperfusion at 37° C.; p<0.01.
Procedure: The rats were anesthetized by intraperitoneal injection of sodium pentobarbital (50 milligrams per kilogram (mg/kg)). They were then placed in dorsal decubitus. After isolating the femoral vein, heparin was administered intravenously (200 IU/kg). An abdominal incision was made, followed by a thoracic incision. The sternum was pulled towards the rat's head, using a clamp, and the diaphragm was dissected. The heart isolated from its pericardium was excised and stopped in the hypothermic Celsior solution. […] The hearts were then placed at 4° C. in the same solution for 8 h (the cold ischemia stage), prior to reperfusion (the reanimation stage).
After 8 h of cold ischemia, each heart was fastened by its aorta to a cannula for continuous retrograde perfusion using Krebs Henseleit (KH, having the following composition in mM: glucose 11.0; NaCl 118.5: KCl 4.75; MgSO4 1.19, KH2PO4 1.2; NaHCO3 24.0; CaCl2 1.4). A constant pressure of 100 centimeters (cm) of H2O (corresponding to 74 millimeters of mercury (mmHg)) was imposed. The KH solution was bubbled continuously with 95% O2+5% CO2, in order to maintain its pH at 7.4.
A latex balloon was installed in the left ventricle and connected to a pressure sensor previously calibrated by internal calibration (0 to 200 mmHg). At the beginning of reperfusion, the balloon was inflated in order to obtain a telediastolic pressure of about 5 mmHg. […]
Test [3] concerns isolated whole rat heart. The test can be described thus: Myocardial necrosis (size of infarctus, TTC dye) of isolated rat heart after cold ischemia-reperfusion. Conditions: 1 μM in Celsior solution, 8 h cold ischemia at 4° C. then reperfusion.
Procedure: The rats were anesthetized by intraperitoneal injection of sodium pentobarbital (50 milligrams per kilogram (mg/kg)). They were then placed in dorsal decubitus. After isolating the femoral vein, heparin was administered intravenously (200 IU/kg). An abdominal incision was made, followed by a thoracic incision. The sternum was pulled towards the rat's head, using a clamp, and the diaphragm was dissected. The heart isolated from its pericardium was excised and stopped in the hypothermic Celsior solution. […] The hearts were then placed at 4° C. in the same solution for 8 h (the cold ischemia stage), prior to reperfusion (the reanimation stage). After 8 h of cold ischemia, each heart was fastened by its aorta to a cannula for continuous retrograde perfusion using Krebs Henseleit (KH, having the following composition in mM: glucose 11.0; NaCl 118.5: KCl 4.75; MgSO4 1.19, KH2PO4 1.2; NaHCO3 24.0; CaCl2 1.4). A constant pressure of 100 centimeters (cm) of H2O (corresponding to 74 millimeters of mercury (mmHg)) was imposed. […] For each slice, the ratio AN/AR was expressed as a percentage, representing the size of the infarctus. The sum of the infarctuses in all of the sections belonging to the same left ventricle gave the quantity of necrosis for the heart in question. […] At the end of cold ischemia, the hearts were reperfused and the size of infarctus was analyzed histologically after using TTC dye.
Setting [4] is: 1 μM, 5 μM and 10 μM in MM, 24 h cold ischemia + 24 h reperfusion.
Where [5] appears, read: tested 0.25-10 μM in St. Thomas basal solution, 24 h cold ischemia + 24 h reperfusion.

These results are taken from patent publication US10440947B2, “Aqueous solution for preserving an organ and uses during hypothermic ischemia” (UNIVERSITE CLAUDE BERNARD LYON I, priority 2013, dated 2019).

Each structure is given as a SMILES string.

As for `CC(=O)O[C@H]1C(=O)[C@@]2(C)[C@H]([C@H](OC(=O)c3ccccc3)[C@]3(O)C[C@H](OC(=O)[C@H](O)[C@@H](NC(=O)c4ccccc4)c4ccccc4)C(C)=C1C3(C)C)[C@]1(OC(C)=O)CO[C@@H]1C[C@@H]2O` [taxol, paclitaxel], the “cardioprotective effect when added singly to LYPS, relative to "MM" reference group” value (in test [1] (setting [4]); with H9c2 cardiomyocytes (setting [4])) was “adds nothing in terms of cardioprotective effect” each time. The “cardiomyocyte viability increased (MTT) relative to control group” value in test [1] (agent at optimum concentration around 1 μM in St. Thomas basal solution, 24 h cold ischemia at 4° C. + 24 h reperfusion, p<0.01) is given as “about 25%”; in the test on H9c2 cardiomyocytes (agent at optimum concentration around 1 μM in St. Thomas basal solution, 24 h cold ischemia at 4° C. + 24 h reperfusion, p<0.001) it was “about 90%”. In addition, the “optimum concentration for increasing cardiomyocyte viability” value (in test [1] (setting [5]); in the test with H9c2 cardiomyocytes (setting [5])) was “around 1 μM” throughout. Also, in the test with isolated whole rat heart [2], the “improvement in LVDevP×HR compared with the control group” value is reported as 25%. In the test with isolated whole rat heart [3], the “size of infarctus (AN/AR), % of the zone at risk” value was determined as 8.7%.
